Laboratory results published in patent US10449135B2, “Solublizing agents for UV filters in cosmetic formulations” (BASF SE, priority 2014, dated 2019).

Assay: Solubility tests of UV filters in the solubilizing agent
Type: physicochemical
Conditions: solvent: morpholine amide of formula (AM-01); stirred seven days at 25° C.; concentration by UV/Vis-spectrometry
Procedure: 2 ml of the solubilizing agent are filled into a 20 ml vial with cap. Afterwards 0.02 g (1%) of the respective substance (UV Filter) are weighed and added to the solvent. The vial is placed into a thermostat-controlled water bath, wherein the suspension/solution is stirred during seven days at 25° C. If the amount of substance put into the solubilizing agent is fully soluble, additional substance is added until precipitation can be observed. After seven days, the sample is centrifuged for 30 minutes at 13000 rpm at 25° C. The supernatant is transferred into a small beaker. In case the sample is still turbid, it is filtered through a 0.2 μm non-steril Membrex 25 PET filter. Clear solutions must not be filtered. When a clear solution is obtained, the concentration of the substance is determined with UV/Vis-spectrometry. For this purpose the sample may be diluted with a suitable solvent or, in case of lower concentrations, may be measured as is. In order to evaluate the concentration from the UV-spectroscopic results, the extinction coefficient is needed, which is determined independently with a solvent of similar polarity like that one used for dilution of the saturated solutions. The solubility can be calculated using the equation of the Lambert-Beer-Law.

Solubility of UV filter in solubilizing agent	Structure (SMILES)
>40%	CCCCCCOC(=O)c1ccccc1C(=O)c1ccc(N(CC)CC)cc1O [BPH-02]
45%	CCCCC(CC)COC(=O)c1ccc(Nc2nc(Nc3ccc(C(=O)OCC(CC)CCCC)cc3)nc(Nc3ccc(C(=O)OCC(CC)CCCC)cc3)n2)cc1 (stereo not drawn) [TAT-02]
15%	CCCCC(CC)COc1ccc(-c2nc(-c3ccc(OC)cc3)nc(-c3ccc(OCC(CC)CCCC)cc3O)n2)c(O)c1 (stereo not drawn) [HTP-02]
